Assays:
[1] = target: T1, Flt3 (Homo sapiens, UniProt P36888); assay: Kinase inhibition, full range of concentrations; format: biochemical; settings: 10 μM ATP, duplicate measurements
T1 sequence (P36888 27-993): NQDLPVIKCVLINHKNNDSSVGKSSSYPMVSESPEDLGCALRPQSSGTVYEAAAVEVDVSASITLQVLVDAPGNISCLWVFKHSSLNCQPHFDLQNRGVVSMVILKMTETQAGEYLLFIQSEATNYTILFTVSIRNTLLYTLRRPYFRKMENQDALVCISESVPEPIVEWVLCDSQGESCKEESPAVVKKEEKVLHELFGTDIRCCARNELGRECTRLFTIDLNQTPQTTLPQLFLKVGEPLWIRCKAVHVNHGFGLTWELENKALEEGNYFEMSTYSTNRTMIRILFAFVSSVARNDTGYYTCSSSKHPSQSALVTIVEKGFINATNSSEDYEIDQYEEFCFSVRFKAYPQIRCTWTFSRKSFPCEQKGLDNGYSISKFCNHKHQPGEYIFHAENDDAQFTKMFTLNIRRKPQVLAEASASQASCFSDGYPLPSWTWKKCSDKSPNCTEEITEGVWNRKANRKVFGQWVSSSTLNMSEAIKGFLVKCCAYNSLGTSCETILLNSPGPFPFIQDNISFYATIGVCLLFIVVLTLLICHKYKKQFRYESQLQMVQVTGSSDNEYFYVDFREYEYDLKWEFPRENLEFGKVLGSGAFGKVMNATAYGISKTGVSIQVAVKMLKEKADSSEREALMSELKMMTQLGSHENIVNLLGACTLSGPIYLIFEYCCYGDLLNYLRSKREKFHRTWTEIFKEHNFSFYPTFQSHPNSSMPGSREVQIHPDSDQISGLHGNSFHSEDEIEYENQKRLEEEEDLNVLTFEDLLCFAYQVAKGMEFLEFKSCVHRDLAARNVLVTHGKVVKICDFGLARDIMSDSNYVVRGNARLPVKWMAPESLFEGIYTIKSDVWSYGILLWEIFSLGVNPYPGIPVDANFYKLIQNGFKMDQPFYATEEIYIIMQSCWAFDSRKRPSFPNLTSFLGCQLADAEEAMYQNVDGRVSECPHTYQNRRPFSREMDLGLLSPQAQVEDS
Protocol: In a final reaction volume of 25 μL, each human enzyme was incubated with appropriate buffer. The reaction was initiated by the addition of the MgATP mix with [γ^33P-ATP]. After incubation for 40 minutes at room temperature, the reaction was stopped by the addition of 5 μL of a phosphoric acid solution. All assays were performed at an ATP concentration of 10 μM.
10 μL of the reaction was spotted onto a P30 filtermat and washed three times for 5 minutes in a phosphoric acid solution. ^33P transferred to a substrate peptide was then determined by scintillation counting. The results were expressed as a percentage of that in control incubations.
Furthermore, inhibitory activities of the compounds were confirmed against six of these kinases with a full range of concentrations. Three cytoplasmic Src family kinases were studied: c-Src, Fyn and Lyn. We also studied cytoplasmic Abl kinase and two receptor tyrosine kinases: Flt3, and TrkB. A standard ATP concentration of 10 μM was used in all reactions. All experiments were conducted with duplicate measurements. […] TrkB and members of the Src family were the most sensitive enzymes to Compound 091 inhibition.

[2] = test system: Cell lines which carried a B-RAF V600E mutation; assay: Cell growth inhibition in solid cancer cell lines (CellTiter-Glo or methylene blue); format: cell-based; settings: 96 hours, B-RAF V600E mutated cell lines very sensitive
Protocol: Compounds 091 and 106, were extensively tested in solid cancer cell lines (shown in FIG. 3 for 18 cell lines for compound 091 and 20 cell lines for compound 106). […] Cell growth was assessed using a CellTiter-Glo® Luminescent Cell Viability Assay (Promega) or a methylene blue assay.

[3] = test system: Colo205 human colon cancer xenografts; assay: In vivo antitumor activity in Colo205 xenografts; design: species or system mice; settings: 30 mg/kg i.v., two weekly rounds of q1d×5
Protocol: A study was carried out to investigate anticancer activity of compounds 091 and 106 in human Colo205 BRAF mutated colon cancer xenografts. The compounds were evaluated against subcutaneous-implanted Colo205 human colon cancer xenografts in female athymic mice.
(§1) The human colon cancer cell line, Colo205 which has B-RAF (V600E) mutation was transplanted subcutaneously into female nude mice. The experiment consisted of 6 mice per group on the first day of treatment. The compound was administered intravenously for two weekly rounds of five daily injections (q1d×5) with a two-day rest period between the rounds. Compound 091 was administered in a vehicle volume of 0.1 mL/10 g of body weight.
(§2) The general health of the mice was monitored daily. Tumor dimensions and body weights were recorded twice a week starting on the first day of treatment. Tumor weights were calculated using the equation (l×w^2)/2, where 1 and w refer to the larger and smaller dimensions collected at each measurement. When the mean tumor volume reached 140 mm^3, vehicle (cremophor:ethanol:5% glucose; 1:1:8) or the test compound (30 mg/kg) was administered to mice (6/group).

[4] = test system: BxPC-3 human pancreatic cancer xenografts; assay: In vivo antitumor activity in BxPC-3 xenografts; design: species or system mice; settings: 30 mg/kg i.v., two weekly rounds of q1d×5
Protocol: A study was carried out to investigate anticancer activity of compound 091 in human BxPC-3 pancreatic cancer xenografts. The compound was evaluated against subcutaneous-implanted BxPC-3 human pancreatic cancer xenografts in female athymic mice.
as §1, with “pancreatic” for “colon”, “BxPC-3-T1 (no mutations on” for “Colo205 which has”, “and Ras genes)” for “(V600E) mutation”, “8” for “6”, “The compound” for “Compound 091”
as §2, with “130” for “140”, “(15, 30” for “(30”, “(8/group).” for “(6/group).”

[5] = test system: PANC-1 pancreatic cancer cells; assay: PANC-1 cell growth, alone or in combination with SN-38 (CellTiter-Glo)
Protocol: To determine whether compounds 091 or 106 in combination with SN-38 would enhance the anticancer activity of chemotherapy due to MEKK1 inhibition, PANC-1 human pancreatic cancer cells were examined.
Antiproliferative effects of SN-38 were evaluated in PANC-1 pancreatic cancer cells in combination with compound 091 or 106. Cultured human cancer cells were placed into 96-well plates and grown in the absence or continuous presence of 0.03-1000 nM SN-38 for 96 h with or without 1 μM of test compound. Cell growth was assessed using CellTiter-Glo® Luminescent Cell Viability Assay (Promega). IC50 values were determined as the concentration of a substance which inhibits cell growth by 50% compared to untreated cell populations.

CNc1cc(O)c2c(c1)/C=C/C[C@H](O)[C@H](O)C(=O)/C=C\[C@@H](C)[C@H](C)OC2=O [Compound 091]
IC50 [1]: < 214 nM | cell growth inhibition, concentration range of sensitivity [2]: low-nM or sub-μM | tumor regression [3]: ~70% | tumor regression [4]: 50% | effect on PANC-1 cancer cell growth, compound alone ([5]; 1 μM alone, separate experiments (data not shown)): did not affect | effect on cytotoxicity of SN-38 ([5]; 1 μM test compound in combination with SN-38): enhanced
